Assay results published in US11919878B1, “9-(2-hydroxypyridin-3-yl)-10-(2-phenylethyl)-3,3,6,6-tetramethyl-3,4,6,7,9,10-hexahydroacridine1,8(2H,5H)-dione as an antimicrobial compound” (KING FAISAL UNIVERSITY, priority 2023, dated 2024).

What was measured:
Assay in all cases: Antimicrobial screening, agar dilution
Type in all cases: cell-based
Details in all cases: after 10, 20, 40 and 60 minutes at all dilutions 1:100, 1:200, 1:400, 1:800
Candida albicans = system: Candida albicans
Protocol: (§1) The antibacterial properties of the synthesized compound compound (9-(2-hydroxypyridin-3-yl)-10-(2-phenylethyl)-3,3,6,6-tetramethyl-3,4,6,7,9,10-hexahydroacridine1,8(2H,5H)-dione) were studied by the method of agar dilution. Test solutions of each compound was prepared in concentration of 1% using dimethylformamide as a solvent then they are diluted in physiological solution to obtain the final experimental dilutions 1:100, 1:200, 1:400, 1:800. The effect of these substances are compared with furacillin in a controllable study. The testing microbes used were gram positive bacteria Staphylococcus aureus, gram negative bacteria Pseudomonas aeruginosa and Escherichia coli and Candida albicans fungus. The experiments used for this survey were meat-pentonlu agar (EPA) for cultivation of bacteria and Saburo enviromnent for the fungus. Each experiment used 1 mL of test solution on each plate […]. Two drops of emulsified with microbes feel were added. All experimental samples were taken from the agar after 10, 20, 40, 60 minutes in the environment on the basis of Patrk planted. The bacteria were cultivated at a temperature: of 37° C for 1 day and the mushroom was kept in a thermostat for […] at a temperature of 28° C. Then results were checked.

Escherichia coli = system: Escherichia coli
Protocol: as §1

Pseudomonas aeruginosa = system: Pseudomonas aeruginosa
Protocol: as §1

Staphylococcus aureus = system: Staphylococcus aureus
Protocol: as §1

Measured: inhibition activity (in words)

CC1(C)CC(=O)C2=C(C1)N(CCc1ccccc1)C1=C(C(=O)CC(C)(C)C1)C2c1cccnc1O [9-(2-hydroxypyridin-3-yl)-10-(2-phenylethyl)-3,3,6,6-tetramethyl-3,4,6,7,9,10-hexahydroacridine1,8(2H,5H)-dione]
highest inhibition activity: Candida albicans | Escherichia coli | Pseudomonas aeruginosa | Staphylococcus aureus
